In brackets after ≈: the same amount, converted by molar mass. Residues, ends and D or L forms follow the SMILES beside them.
How the values were obtained:
[1] = tested on: S. epidermidis (ATCC 35984) biofilm; assay: Biofilm-formation inhibitory activity, crystal violet staining; format: cell-based, Staphylococcus epidermidis; conditions: CV staining, TSB, 10^6 CFU/mL, 24 h, 37°C, 0.98-250 µg/mL; for MBIC50: minimum concentration inhibiting biofilm formation more than 50%; for MBIC90: minimum concentration inhibiting biofilm formation more than 90%
Method: The biofilm inhibitory activity of peptide derivatives was assessed by modified crystal violet (CV) staining. Briefly, the pellet of S. epidermidis (ATCC 35984) was collected through centrifugation of bacterial suspensions grown overnight at 2,500 × g for 5 min. Subsequently, the pellet was resuspended and diluted with TSB to a final concentration of 10^6 CFU/mL. Then, 50 µL of these diluted suspensions was transferred to 96-well microplates containing same volume of peptide derivatives in 10 mM phosphate buffer saline (PBS; Caisson Labs, USA), with concentrations ranging from 0.98 to 250 µg/mL. Vancomycin was used as positive control while TSB medium without bacteria was used as negative control. After 24 h of incubation and reaching static growth at 37°C, culture media as well as planktonic cells were removed, then the biofilm in each well was washed thrice with 0.85% NaCl. For CV staining, biofilms were fixed with 95% ethanol and stained with a 0.1% (v/v) CV solution for 15 min. After removal of excess dye, each well was washed thrice with 0.85% NaCl and resuspended in 95% ethanol to dissolve bound dye. Absorbance was determined at 570 nm using a Multiskan SkyHigh microplate reader (Thermo Scientific™, Singapore). All experiments were done in six technical replicates and repeated independently three times. Minimum biofilm inhibitory concentrations at 50% and 90% (MBIC50 and MBIC90) refers to concentrations of the peptide at which the inhibition of biofilm was at least 50% and 90%, respectively.

[2] = tested on: human red blood cells (hRBCs); assay: Hemolysis activity (hemoglobin release); format: cell-based; conditions: 1 h, 37°C; for MHC, minimum hemolytic concentration: peptide concentration causing 10% hemolysis of hRBCs, 2% hRBCs in 10 mM PBS, OD405
Method: The effect of peptides on human red blood cells (hRBCs) was assessed by observing the release of hemoglobin upon treated with peptide. Briefly, the hRBCs were obtained from healthy volunteers and subsequently diluted in 10 mM PBS to a concentration of 2% hRBCs. An equal volume of 2% hRBCs and peptide at concentration of 0.98–250 µg/mL in 10 mM PBS mixtures were incubated for 1 h at 37°C. Following incubation, the suspension was centrifuged, then supernatants were collected and transferred to 96-well microplates for measurement of absorbance at OD of 405 nm (OD405). This study was performed in accordance with the Thammasat University Ethics Committee (COA No. 066/2562). Written informed consent was obtained from all volunteers.

[3] = tested on: all gram-negative bacterial strains; assay: Mean MIC and therapeutic index, gram-negative strains; format: cell-based; conditions: four gram-negative strains
Method: (§1) The minimal inhibitory concentrations (MICs) of peptide derivatives versus planktonic bacteria were assessed using a modification of the broth microdilution assay previously described in the National Committee for Clinical Laboratory Standards (NCCLS). In brief, bacteria at mid-logarithmic growth were collected by centrifugation at 2,500 × g for 5 min. Subsequently, the pellet was resuspended and adjusted in Mueller-Hinton Broth (MHB; BD Bacto™, USA) to an OD620 of 0.05. Fifty µL of bacterial suspensions was transferred to 96-well microplates. Later, 50 µL of peptide derivatives at 0.98–250 µg/mL in 10 mM PBS, was added to wells and incubated for 24 h at 37°C with continuous shaking at 220 rpm. […] The experiments were done in three technical replicates and repeated independently.
(§2) The therapeutic index (TI) is widely used for evaluating a peptide’s efficacy and safety. It is the ratio between the minimum hemolytic concentration (MHC, the concentration causing 10% hemolysis) and the geometric mean (GM) value of the MIC [15]. […] While, both lysine-substituted peptides (BiF2_7K and BiF2_5K7K) had higher TIs against all tested biofilm-forming bacteria than did the two parent peptides, and the TI of BiF2_5K7K was higher than that of BiF2_7K.

[4] = tested on: all gram-positive bacterial strains; assay: Mean MIC and therapeutic index, gram-positive strains; format: cell-based; conditions: four gram-positive strains
Method: as §1, §2

[5] = tested on: Acinetobacter baumanii MT strain; assay: Broth microdilution MIC / MBC; format: cell-based; conditions: 24 h, 37°C; for MIC: broth microdilution, MHB, 0.98-250 µg/mL, visible inspection; for MBC: plating of non-turbid wells on TSA
Method: as §1
(§3) To determine minimal bactericidal concentrations (MBCs) of the peptides, 50 µL of supernatant from non-turbid wells was plated on TSA, and the number of colony-forming units (CFUs) was observed after 24 h of incubation at 37°C. MBC was defined as the minimum concentration of peptide at which no bacterial colony was observed on the plate.

[6] = tested on: Staphylococcus aureus ATCC 25923; assay: Broth microdilution MIC / MBC; format: cell-based; conditions: 24 h, 37°C; for MIC: broth microdilution, MHB, 0.98-250 µg/mL, visible inspection; for MBC: plating of non-turbid wells on TSA
Method: as §1, §3

[7] = tested on: Salmonella Typhimurium ATCC 13311; assay: Broth microdilution MIC / MBC; format: cell-based; conditions: 24 h, 37°C; for MIC: broth microdilution, MHB, 0.98-250 µg/mL, visible inspection; for MBC: plating of non-turbid wells on TSA
Method: as §1, §3

[8] = tested on: Pseudomonas aeruginosa ATCC 27853; assay: Broth microdilution MIC / MBC; format: cell-based; conditions: 24 h, 37°C; for MIC: broth microdilution, MHB, 0.98-250 µg/mL, visible inspection; for MBC: plating of non-turbid wells on TSA
Method: as §1, §3

[9] = tested on: Escherichia coli ATCC 25922; assay: Broth microdilution MIC / MBC; format: cell-based; conditions: 24 h, 37°C; for MIC: broth microdilution, MHB, 0.98-250 µg/mL, visible inspection; for MBC: plating of non-turbid wells on TSA
Method: as §1, §3

[10] = tested on: Listeria monocytogenes 10403s; assay: Broth microdilution MIC / MBC; format: cell-based; conditions: 24 h, 37°C; for MIC: broth microdilution, MHB, 0.98-250 µg/mL, visible inspection; for MBC: plating of non-turbid wells on TSA
Method: as §1, §3

[11] = tested on: Staphylococcus epidermidis ATCC 35984; assay: Broth microdilution MIC / MBC; format: cell-based; conditions: 24 h, 37°C; for MIC: broth microdilution, MHB, 0.98-250 µg/mL, visible inspection; for MBC: plating of non-turbid wells on TSA
Method: as §1, §3

[12] = tested on: Bacillus cereus ATCC 11778; assay: Broth microdilution MIC / MBC; format: cell-based; conditions: 24 h, 37°C; for MIC: broth microdilution, MHB, 0.98-250 µg/mL, visible inspection; for MBC: plating of non-turbid wells on TSA
Method: as §1, §3

[13] = tested on: human lung fibroblast MRC-5 cell lines (ATCC CCL-171); assay: MTT cytotoxicity assay; format: cell-based; conditions: MRC-5, 24 h
Method: The toxicity of peptide BiF2_5K7K against human lung fibroblast MRC-5 cell lines (ATCC CCL-171) was investigated by MTT colorimetric assay. Briefly, MRC-5 cells were cultured in Minimum Essential Medium [MEM; supplemented with 10% heat-inactivated FBS and 1% Penicillin-Streptomycin] in 5% CO2 at 37°C. Following an overnight incubation, MRC-5 cells were diluted to 10,000 cells/well and placed in 96-well microplates. Subsequently, they were exposed to BiF2_5K7K at 0.98 to 250 µg/mL. After incubation for 24 h, MTT solution (0.4 mg/mL) was added to each well and incubated for an additional 3 h under 5% CO2 at 37°C. The supernatant was then removed and 100 µL DMSO added, and absorbance was measured at 570 nm using a microplate reader.

Structure (SMILES) | MBIC50 [1] | MBIC90 [1] | MHC, minimum hemolytic concentration [2] | GM-, geometric mean of MIC values from all gram-negative bacterial strains [3] | GM +, geometric mean of MIC values from all gram-positive bacterial strains [4] | MIC [5] | MBC [5] | MIC [6] | MBC [6] | MIC [7] | MBC [7] | MIC [8] | MBC [8] | MBC [9] | MIC [10] | MBC [10] | MIC [11] | MBC [11] | MIC [12] | MBC [12] | further results
CN[C@H](CC(C)C)C(=O)N[C@H]1C(=O)N[C@@H](CC(N)=O)C(=O)N[C@H]2C(=O)N[C@H]3C(=O)N[C@H](C(=O)N[C@H](C(=O)O)c4cc(O)cc(O)c4-c4cc3ccc4O)[C@H](O)c3ccc(c(Cl)c3)Oc3cc2cc(c3O[C@@H]2O[C@H](CO)[C@@H](O)[C@H](O)[C@H]2O[C@H]2C[C@](C)(N)[C@H](O)[C@H](C)O2)Oc2ccc(cc2Cl)[C@H]1O [vancomycin, reference compound] | 3.91 µg/mL | 3.91 µg/mL | – | – | – | – | – | – | – | – | – | – | – | – | – | – | – | – | – | – | –
CC[C@H](C)[C@H](NC(=O)[C@H](CC(C)C)NC(=O)[C@H](CCCCN)NC(=O)[C@@H](NC(=O)[C@H](CC(C)C)NC(=O)[C@@H](N)Cc1ccccc1)C(C)C)C(=O)N[C@@H](CCCCN)C(=O)N[C@@H](CCCCN)C(=O)N[C@H](C(=O)N[C@@H](CC(C)C)C(=O)N[C@@H](CCCNC(=N)N)C(=O)N[C@@H](CCCNC(=N)N)C(N)=O)[C@@H](C)CC [BiF2_7K] (H-FLVKLIKKILRR-NH2; N-terminus assumed) | 3.91 µg/mL | 7.81 µg/mL | 15.63 µg/mL | 15.63 µg/mL | 9.77 µg/mL | 7.81 µg/mL (≈ 5.12 µM) | 7.81 µg/mL (≈ 5.12 µM) | 15.6 µg/mL (≈ 10.2 µM) | 15.6 µg/mL (≈ 10.2 µM) | 7.81 µg/mL (≈ 5.12 µM) | 15.63 µg/mL (≈ 10.2 µM) | 15.6 µg/mL (≈ 10.2 µM) | 15.6 µg/mL (≈ 10.2 µM) | 31.2 µg/mL (≈ 20.5 µM) | 7.81 µg/mL (≈ 5.12 µM) | 7.81 µg/mL (≈ 5.12 µM) | 7.81 µg/mL (≈ 5.12 µM) | 7.81 µg/mL (≈ 5.12 µM) | 7.81 µg/mL (≈ 5.12 µM) | 7.81 µg/mL (≈ 5.12 µM) | hemolytic activity ([2]; at 250 µg/mL (maximum concentration tested)): 60%; MIC [9]: 31.2 µg/mL (≈ 20.5 µM)
CC[C@H](C)[C@H](NC(=O)CN)C(=O)NCC(=O)N[C@@H](C)C(=O)N[C@H](C(=O)N[C@@H](CC(C)C)C(=O)N[C@@H](CCCCN)C(=O)N[C@H](C(=O)N[C@@H](CC(C)C)C(=O)N[C@H](C(=O)N[C@H](C(=O)NCC(=O)N[C@@H](CC(C)C)C(=O)N1CCC[C@H]1C(=O)N[C@@H](C)C(=O)N[C@@H](CC(C)C)C(=O)N[C@H](C(=O)N[C@@H](CO)C(=O)N[C@@H](Cc1c[nH]c2ccccc12)C(=O)N[C@H](C(=O)N[C@@H](CCCCN)C(=O)N[C@@H](CCCNC(=N)N)C(=O)N[C@@H](CCCCN)C(=O)N[C@@H](CCCNC(=N)N)C(=O)N[C@@H](CCC(N)=O)C(=O)N[C@@H](CCC(N)=O)C(N)=O)[C@@H](C)CC)[C@@H](C)CC)[C@@H](C)O)[C@@H](C)O)C(C)C)C(C)C [Melittin, melittin, reference compound] | – | – | – | 14.65 µg/mL | 6.84 µg/mL | 7.81 µg/mL (≈ 2.74 µM) | 7.81 µg/mL (≈ 2.74 µM) | – | – | 3.91 µg/mL (≈ 1.37 µM) | 3.91 µg/mL (≈ 1.37 µM) | 15.6 µg/mL (≈ 5.49 µM) | 15.6 µg/mL (≈ 5.49 µM) | 31.2 µg/mL (≈ 11 µM) | 3.91 µg/mL (≈ 1.37 µM) | 3.91 µg/mL (≈ 1.37 µM) | 15.6 µg/mL (≈ 5.49 µM) | 15.6 µg/mL (≈ 5.49 µM) | 3.91 µg/mL (≈ 1.37 µM) | 3.91 µg/mL (≈ 1.37 µM) | lysis of hRBCs ([2]; at 3.91 µg/mL): completely lysed; cytotoxic effect [13]: strong dose-dependent cytotoxic effect
CC[C@H](C)[C@H](NC(=O)[C@H](CC(C)C)NC(=O)[C@H](CCCCN)NC(=O)[C@@H](NC(=O)[C@H](CC(C)C)NC(=O)[C@@H](N)Cc1ccccc1)C(C)C)C(=O)N[C@@H](CC(C)C)C(=O)N[C@@H](CCCCN)C(=O)N[C@H](C(=O)N[C@@H](CC(C)C)C(=O)N[C@@H](CCCNC(=N)N)C(=O)N[C@@H](CCCNC(=N)N)C(N)=O)[C@@H](C)CC [BiF2] (H-FLVKLILKILRR-NH2; N-terminus assumed) | 125 µg/mL | 250 µg/mL | 1.95 µg/mL | 42.97 µg/mL | 31.25 µg/mL | 62.5 µg/mL (≈ 41.4 µM) | 62.5 µg/mL (≈ 41.4 µM) | 62.5 µg/mL (≈ 41.4 µM) | 62.5 µg/mL (≈ 41.4 µM) | 62.5 µg/mL (≈ 41.4 µM) | 62.5 µg/mL (≈ 41.4 µM) | 15.63 µg/mL (≈ 10.3 µM) | 31.25 µg/mL (≈ 20.7 µM) | 31.2 µg/mL (≈ 20.7 µM) | 15.63 µg/mL (≈ 10.3 µM) | 31.25 µg/mL (≈ 20.7 µM) | 31.25 µg/mL (≈ 20.7 µM) | 62.5 µg/mL (≈ 41.4 µM) | 15.6 µg/mL (≈ 10.3 µM) | 15.6 µg/mL (≈ 10.3 µM) | MIC [9]: 31.2 µg/mL (≈ 20.7 µM)

From publication PMC11100219, “Dual-function antimicrobial-antibiofilm peptide hybrid to tackle biofilm-forming Staphylococcus epidermidis” (Annals of Clinical Microbiology and Antimicrobials, 2024)
